# Reference: USRE42961E1, “Use of autonomic nervous system neurotransmitters inhibition and atrial parasympathetic fibers ablation for the treatment of atrial arrhythmias and to preserve drug effects” (St. Jude Medical, Atrial Fibrillation Division, Inc., priority 2000, dated 2011)
# Several values for one entry are separate records, joined by “and”; a condition that tells them apart may be missing. Equal entries are not always repeated.
# Key:
# [1] = test system: atrial flutter; details: intravenous atropine and propranolol together; supine or upright position; cited from earlier work
# [2] = test system: common human atrial flutter; details: cited from earlier work
# [3] = test system: atrial flutter circuit; assay: Canine Y-shaped lesion model of sustained stable atrial flutter; reset-response measurement of cycle length, refractory period and excitable gap during neurotransmitter infusion with or without sotalol; format: in vivo, dog
# Description: In a group of 13 open chest anaesthetised dogs, atrial flutter model was produced during baseline conditions around the tricuspid valve using a Y-shaped lesion in the intercaval area extending to the right atrial appendage. Atrial flutter was induced at the shortest effective refractory period site using fast pacing stimulation (S1S1) of 100-150 ms. This manoeuvre was repeated as much as necessary with more damage in the Y-shaped lesion model to achieve a sustained stable atrial flutter (>10 min) during the baseline conditions. In order to determine the excitable gap duration and composition during this sustained and stable atrial flutter, a diastole was scanned with a single premature extrastimulus, S1S2 (S1S2=]refractory period, flutter cycle length[) to define the atrial flutter circuit composition and duration (flutter cycle length=refractory period+excitable gap). Atrial flutter cycle length, atrial effective refractory period and duration of the excitable gap were then determined. Measures were repeated during a constant infusion into the right coronary artery of norepinephrine (15 μg/min) and acetylcholine (2 μg/min) allowing 15 min for recovery from norepinephrine effects. The effects of norepinephrine and acetylcholine at a constant plasma level of d-sotalol or d,l-sotalol (0.8 mg/kg+0.4 mg/kg/hr) were also studied in 2 different groups of chloralose anaesthetised dogs on the same electrophysiological parameters described above.
# Atrial Flutter protocol: All experiments described were in accordance with institutional guidelines for animal experimentation. Fourteen mongrel dogs of either sex, weight 29-45 kg, were studied in the post-absorptive state. General anaesthesia was induced with sodium thiopental (25 mg/kg iv.) and maintained with chloralose (80 mg/kg iv. bolus supplemented by 20 mg/kg/hr maximum as needed). The dogs were intubated and ventilated (Harvard pump) with room air (10 breaths/min, tidal volume to achieve a maximum inspiratory pressure of 20 cm water) to maintain arterial pH 7.35-7.45 and PaO2>80 mm Hg. Arterial and venous cannulae were inserted in the left femoral artery and vein by direct cut down for blood pressure monitoring and drug administration, respectively. An additional venous cannulae was inserted in the right femoral vein or in the right internal jugular vein for blood sampling. Muscular relaxation was then induced with gallamine triethiodide (Flaxedil 100) 3 mg/kg intravenously. A right thoracotomy was performed via the fourth or fifth intercostal space and the pericardium was incised to provide access to the vena cava and the right atrium. […] A second line, extending from the first two-thirds of the way toward the tip of the right atrial appendage and parallel to 1-2 cm above the atrioventricular groove, was similarly incised and sewn over. Five close (2-4 mm) bipolar epicardial silver electrodes (insulated except at the tip) for stimulating and/or recording were sewn around the base of the right atrium within 1 cm of the tricuspid annulus. Three were positioned on the anterior surface and two on the posterior surface (Derakhchan K, et al., 1994). An arterial cannula was inserted in the right coronary artery for neurotransmitter infusion.
# Measurement of electrophysiologic parameters: A single lead (II) surface electrocardiogram, atrial electrograms from each of the 5 bipolar electrodes, and the femoral arterial pressure were monitored and recorded using a Nihon Kohden polygraph (Model RM6008). Data were also stored on a Hewlett-Packard tape recorder. Atrial flutter was induced by burst stimulation (20-30 beats at basic cycle length <100 ms). During stable flutter (cycle length variation <10 ms), a premature stimulus was introduced at the site located on this re-entry circuit after every 20th spontaneous beat (T) in 2 ms decrements beginning at coupling intervals equal to the cycle length of this atrial tachycardia. […]
# [4] = test system: atrial fibrillation; assay: Canine atrial fibrillation model with vagal and stellar ganglion denervation/stimulation (ERP duration and dispersion, conduction velocity, wavelength, AF duration); format: in vivo, dog; details: vagal stimulation in the presence of class III drug therapy
# Source text: In a group of 14 anaesthetised open chest dogs, atrial fibrillation was induced by fast pacing and up to 10 attempts of arrhythmia initiations during baseline condition, vagal denervation, right and left vagal stimulation #1 (1 Hz, 0.1 ms), right and left stellar ganglions denervation, right and left vagal stimulation #2 (1 Hz, 0.1 ms), right and left stellar ganglions stimulation (10 Hz, 2 ms), and right and left vagal stimulation (1 Hz, 0.1 ms) associated with right and left stellar ganglions stimulation (10 Hz, 2 ms). Under the same conditions described above, the effective refractory period duration and dispersion (at S1S1=200 ms), the conduction velocity and the wavelength are determined. Atrial fibrillation occurrence was evaluated by the mean duration of 10 atrial fibrillation episodes at baseline (for a group of animals when none of the 10 atrial fibrillation episodes at baseline were lasting more than 3 minutes) and following each of the conditions described above. […]
# Activation Mapping: Five thin plastic sheets containing 112 bipolar electrodes with 1 mm interpolar and 6 mm interelectrode distances were sewn into position on atrial epicardial surface. […] Each electrogram was analyzed with computer-determined peak-amplitude criteria and was reviewed manually. […] Isochrone maps and activation times for each activation were recorded by the use of IBM ink jet printer. […]
# [5] = d,l-sotalol group, 7 dogs, NE 15 μg/min, ACh 2 μg/min into right coronary artery, d,l-sotalol 0.8 mg/kg+0.4 mg/kg/hr
# [6] = d-sotalol group, 6 dogs, NE 15 μg/min, ACh 2 μg/min into right coronary artery, d-sotalol 0.8 mg/kg+0.4 mg/kg/hr
SMILES,effect on atrial flutter cycle length [1],"Atrial Flutter Cycle Length (AF1CL), mean [3, 5]","Atrial Effective Refractory Period (AERP), mean [3, 5]","Atrial Flutter Cycle Length (AF1CL), mean [3, 6]",also measured
CC(C)NCC(O)COc1cccc2ccccc12 (stereo not shown) [propranolol],did not change,,,,
CN1[C@@H]2CC[C@H]1C[C@@H](OC(=O)C(CO)c1ccccc1)C2 (stereo partly shown) [atropine],did not change,,,,
CC[N+](C)(C)c1cccc(O)c1 [edrophonium],,,,,effect on monophasic atrial action potential duration or atrial flutter cycle length [2]: no significant effect
"CC(C)NCC(O)c1ccc(NS(C)(=O)=O)cc1 (racemic) [d,1-S, d,l-Sotalol]",,143.0 ms,,,antiarrhythmic therapeutic effects under vagal stimulation [4]: significantly and markedly reversed
"NC[C@H](O)c1ccc(O)c(O)c1 [NE, norepinephrine]",,132 ± 8 ms and 131.7500 ms and 131.8 ms,93 ± 7 ms and 93.0000 ms and 93.0 ms,133 ± 12 ms and 133.0000 ms and 133.0 ms,"reversal of d-sotalol effects on atrial flutter cycle length and effective refractory period duration ([3]; in the presence of d-sotalol): significantly reversed; effect on effective refractory period duration ([3]; infusion alone, d-sotalol group, 6 animals): significantly shortened; occurrence of the initiation of atrial flutter ([3]; neurotransmitter infusion, acetylcholine>>norepinephrine): significantly increased"
"CC(=O)OCC[N+](C)(C)C [ACh, acetylcholine]",,119 ± 17 ms and 119.0000 ms and 119.0 ms,64 ± 4 ms and 63.6000 ms and 63.6 ms,123 ± 15 ms and 122.6667 ms and 122.7 ms,"Effective Refractory Period duration (ERPdur), mean [3, 6]: 65 ± 5 ms and 64.8000 ms and 64.8 ms; Excitable Gap duration (EGdur), mean [3, 6]: 48 ± 16 ms and 47.6000 ms and 47.6 ms"
